Assay results reported in US20070213339A1 (Bayer Pharmaceuticals Corporation, priority 2004, published 2007).

test system: Colo205 human colon carcinoma cell line; assay: In vitro tumor cell proliferation assay (MTS, CellTiter 96 Aqueous One Solution); type: cell-based; settings: COLO 205, Colo205 cells, 72 hours compound exposure, MTS absorbance at 490 nm, read-out: IC50 (concentration of test compound required to inhibit proliferation of 50% of the cells)
Procedure, shortened: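 Colo205 cells seeded at 2000 cells/well in RPMI-1640 with 10% serum, exposed to compound for 72 h at 37 °C, 5% CO2, in a 5-point dose-response up to 10-20 μM. Viability read by MTS absorbance at 490 nm; IC50 from background-corrected percent inhibition by linear regression.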

Row | IC50 [nM] | SMILES
1 | < 500 | O=C(O)c1cn(-c2ccc(CN3CC[C@H](O)C3)cc2)c2c(Cl)c(N3CCN(c4ccc(F)cc4)CC3)c(F)cc2c1=O [Example 29, 8-chloro-6-fluoro-7-[4-(4-fluorophenyl)-piperazin-1-yl]-1-(4-{[(3S)-3-hydroxypyrrolidin-1-yl]methyl}phenyl)-4-oxo-1,4-dihydroquinoline-3-carboxylic acid]
2 | < 500 | CCN(CC)Cc1ccc(-n2cc(C(=O)O)c(=O)c3cc(F)c(N4CCN(c5ccc(Cl)cc5)CC4)c(OC(F)(F)Cl)c32)cc1 [Example 164, 8-[chloro(difluoro)methoxy]-7-[4-(4-chlorophenyl)piperazin-1-yl]-1-{4-[(diethylamino)methyl]phenyl}-6-fluoro-4-oxo-1,4-dihydroquinoline-3-carboxylic acid]
3 | < 500 | N#Cc1ccccc1N1CCN(c2c(F)cc3c(=O)c(C(=O)O)cn(-c4ccc(CN5CCCC5)cc4)c3c2Cl)CC1 [Example 4, 8-chloro-6-fluoro-7-[4-(2-cyanophenyl)-piperazin-1-yl]-4-oxo-1-[4-(pyrrolidin-1-ylmethyl)phenyl]1,4-dihydroquinoline-3-carboxylic acid]
4 | 500 to 2000 | COc1c(N2CCN(c3ccccc3F)CC2)c(F)cc2c(=O)c(C(=O)O)cn(-c3ccc(CN(C)C)cc3)c12 [Example 94, 1-{4-[(dimethylamino)methyl]phenyl}-6-fluoro-7-[4-(2-fluorophenyl)piperazin-1-yl]-8-methoxy-4-oxo-1,4-dihydroquinoline-3-carboxylic acid]
